According to patent publication US20240391964A1, “COMPOSITIONS AND METHODS FOR THE TREATMENT OF CANCER” (The University of Western Australia, priority 2020, published 2024):

Assays:
[1] = system: T11 tumours; assay: T11 allograft in BALB/c mice, intratumoral treatment; assay type: in vivo; settings: day 14 post-inoculation, mean±SEM
Experimental: To investigate the efficacy of the combination of melittin and docetaxel in reducing TNBC growth in vivo, T11 cells were transplanted in BALB/c mice. This allograft model recapitulates highly aggressive, TNBC claudin-low disease in mice with an intact immune system. Three days after the generation of T11 tumours (˜50 mm^3), mice were randomized into four groups (n=12 mice/group) and treated intratumorally with either vehicle, melittin (5 mg/Kg), docetaxel (7 mg/Kg), or a combination of melittin (5 mg/Kg) and docetaxel (7 mg/Kg). Mice were treated every two days from day three, with a total of seven treatments.
The therapeutic effects of melittin and docetaxel were validated in tumour tissues at day 14 post-inoculation of T11 cells by immunohistochemistry and immunofluorescence (FIG. 14A).

[2] = system: EGFR and MAPK phosphorylation in MDA-MB-231 cells; assay: Immunoblotting of RTK signalling, MDA-MB-231; assay type: cell-based, human; settings: MDA-MB-231, EGF treatment
Experimental: To characterize the effects on signaling pathways in another TNBC model, immunoblotting was conducted on MDA-MB-231 cells, in which EGF treatment phosphorylated EGFR and induced EGFR expression (FIG. 8C). […] Other growth factor receptors such as VEGFR1 may mediate the activation of these pathways.

[3] = system: SUM159 cells; assay: Annexin V flow cytometry; assay type: cell-based, human; settings: IC50 concentration, 60 minutes, mean±SEM
Experimental: To quantify the apoptotic, necrotic or dead cell populations after treatment, flow cytometry for the detection of Annexin V (an early marker of apoptosis) was performed.

[4] = system: SUM159 cells; assay: Cleaved caspase-3 immunoblot; assay type: cell-based, human
[5] = system: human TNBC and HER2-enriched breast cancer cells; assay: Cell viability dose-response assay, TNBC and HER2-enriched panel; assay type: cell-based; settings: range over human TNBC and HER2-enriched breast cancer cells
Experimental: (§2) To assess anticancer efficacy and selectivity, both venom from European honeybees collected in Perth, Australia and melittin peptide were evaluated in dose-response assays in a panel of cell lines representative of the intrinsic breast cancer subtypes and in non-transformed cells.
Data are presented as mean±SEM in ng/μL or μM (to two decimal places). Experiments were performed in biological triplicate.

[6] = system: JAK/STAT pathway in SUM159 cells; assay: Western blot of JAK/STAT pathway; assay type: cell-based, human; settings: 60-minute treatment
[7] = system: p-HER2, p-EGFR, p-p44/42 MAPK, p-Akt in SKBR3 cells; assay: Immunoblotting of RTK signalling, SKBR3; assay type: cell-based, human; settings: SKBR3, EGF exposed, IC50, from 5 minutes onwards
[8] = system: OVCAR3 cells; assay type: cell-based; settings: OVCAR3, 24 h
Experimental: (§1) The OVCAR3 and COV362 ovarian cancer cell lines were treated with active RGD1-melittin and mutant RGD1-melittin (DEDE-RGD1-melittin). The COV362 cells were cultured in DMEM low glucose medium supplemented with 10% FBS. The OVCAR3 cells were grown in RPMI medium supplemented with 20% FBS. Cells were seeded overnight at a density of 5000 cells/p96-well plate and treated with active RGD1-melittin and mutant RGD1-melittin (RGD1-DEDE melittin), for 24 h at concentrations up to 20 µM. After treatments, cell viability was assessed using the CellTiter-Glo® assay according to the manufacturer's protocol (Promega; NSW, Australia). Luminescence signals were measured using the EnVision Multilabel Plate Reader (PerkinsElmer Inc.; Waltham, MA, USA). IC50s were calculated and transformed 95% confidence intervals provided by GraphPad Prism 6 software analysis (GraphPad Software Inc., San Diego, CA, USA).

[9] = system: COV362 cells; assay type: cell-based; settings: COV362, 24 h
Experimental: as §1

[10] = system: T11 cells; assay: Cell viability, combination with omomyc; assay type: cell-based, murine; settings: T11, 24 hours
Experimental: FIG. 16 presents the results of cell viability assays of T11 breast cancer cells treated with melittin or RGD1-melittin alone and in combination with omomyc for 24 hours. Representative plots of the combination treatments are presented as mean±SEM.
The murine p53 TNBC cell line T11 was treated with omomyc in combination with either melittin or RGD1-melittin, and cell viability assays were conducted to determine the combination effect between the treatments (FIG. 16).

[11] = system: SUM159 cells
Experimental: FIG. 5C presents cell viability assays of human dermal fibroblasts (HDFa) and SUM159 treated with melittin (top) and RGD1-melittin (bottom) for 24 hours.
as §2

[12] = system: p-EGFR, p-Akt, p-p44/42 MAPK in SUM159 cells; assay: Immunoblotting of RTK signalling, SUM159; assay type: cell-based, human
[13] = system: T11 cells; assay: Cell viability, combination with docetaxel; assay type: cell-based, murine; settings: T11, 48 hours
Experimental: FIG. 15 presents the results of cell viability assays of T11 breast cancer cells treated with melittin or RGD1-melittin alone and in combination with docetaxel for 48 hours. Representative plots of the combination treatments are presented as mean±SEM.
The murine p53 TNBC cell line T11 was treated with docetaxel in combination with either melittin or RGD1-melittin, and cell viability assays were conducted to determine the combination effect between the treatments (FIG. 15).

[14] = system: HDFa, SKBR3 and SUM159 cells; assay: Cell viability kinetics over one hour; assay type: cell-based, human; settings: IC50 concentrations

SMILES	PD-L1 expression in tumours [1]	tumour cell proliferation (Ki-67 expression) [1]	phosphorylation of EGFR and MAPK [2]	late apoptotic/necrotic cells [3]	induction of apoptosis (cleaved caspase-3) ([4]; 24 hours)	induction of cleaved caspase-3 (apoptosis) ([4]; IC50 concentration, 18 and 24 hours)	IC50 [5]	effects on JAK/STAT pathway inhibitors [6]	p-HER2 (Tyr1248), p-EGFR (Tyr1068), p-p44/42 MAPK (Thr202/Tyr204), p-Akt (Ser473 and Thr308) [7]	IC50 [8]	IC50 [9]	combination effect with omomyc on cell viability [10]	ratio of the IC50s of HDFa/SUM159 ([11]; 24 hours, mean±SEM)	half-maximal inhibitory concentration (IC50) ([11]; TNBC SUM159)	p-EGFR (Tyr1068) ([12]; SUM159, 10-20 minutes)	p-p44/42 MAPK (Thr202/Tyr204) ([12]; SUM159, 10-20 minutes)	p-Akt (Ser473 and Thr308) ([12]; SUM159, melittin all time points, venom 10-20 minutes)	combination effect with docetaxel on cell viability [13]	cell viability over up to one hour [14]
CC(=O)O[C@@]12CO[C@@H]1C[C@H](O)[C@@]1(C)C(=O)[C@H](O)C3=C(C)[C@@H](OC(=O)[C@H](O)[C@@H](NC(=O)OC(C)(C)C)c4ccccc4)C[C@@](O)([C@@H](OC(=O)c4ccccc4)[C@H]21)C3(C)C [docetaxel]	84.3±0.6%	21.0±1.3%																	
CC[C@H](C)[C@H](NC(=O)CN)C(=O)NCC(=O)N[C@@H](C)C(=O)N[C@H](C(=O)N[C@@H](CC(C)C)C(=O)N[C@@H](CCCCN)C(=O)N[C@H](C(=O)N[C@@H](CC(C)C)C(=O)N[C@H](C(=O)N[C@H](C(=O)NCC(=O)N[C@@H](CC(C)C)C(=O)N1CCC[C@H]1C(=O)N[C@@H](C)C(=O)N[C@@H](CC(C)C)C(=O)N[C@H](C(=O)N[C@@H](CO)C(=O)N[C@@H](Cc1c[nH]c2ccccc12)C(=O)N[C@H](C(=O)N[C@@H](CCCCN)C(=O)N[C@@H](CCCNC(=N)N)C(=O)N[C@@H](CCCCN)C(=O)N[C@@H](CCCNC(=N)N)C(=O)N[C@@H](CCC(N)=O)C(=O)N[C@@H](CCC(N)=O)C(N)=O)[C@@H](C)CC)[C@@H](C)CC)[C@@H](C)O)[C@@H](C)O)C(C)C)C(C)C [melittin]	52.9±2.4%	31.7±1.3%	reduced the phosphorylation of EGFR and MAPK	23.6±5.7%	confirmed the anticancer activity	higher level of apoptosis than honeybee venom	940 to 1490 nM	No modulatory effects	strongly downregulated	18.2 µM	7.81 µM	beneficial effect when combined with omomyc	1.76±0.04	4.24 ng/µL	strongly down-regulated	upregulated	suppressed	beneficial effect when combined with docetaxel	significantly reduced the viability of both breast cancer cell lines compared to the normal cells from 10 minutes onwards
